Like-named read-outs stand apart in the source and are kept apart here.
Tests used:
zebrafish embryos = conditions: 6 mM FA
Procedure: Transgenic zebrafish (fli-1:EGFP) were from the Model Animal Research Center of Nanjing University. Adult zebrafish aged less than 1 were used for experiment and fed at a water pH value of 7±0.2, a temperature around 28° C. and a ratio of illumination to darkness of 14 h:10 h, and with Artemia salina eggs twice a day. Three zebrafish, one female, two males, were placed in a spawning box the night before and eggs were collected the next morning. Fish eggs were placed in an embryo culture medium (prepared with 0.2 g/L of sea salt) and cultured at 28° C. […] Dead embryos were cleaned up in time. Each experiment was conducted in triplicate. […] A phenotype of malformation was observed, the number of all abnormal zebrafish where the malformation was present was recorded and a malformation rate and a rescue rate of each group were calculated. Morphological defects, a heart rate, cardiac morphology and other indicators were observed and evaluated by an SMZ745T inverted stereomicroscope.

[1] = tested on: transcription factors (Nkx2.5, amhc, vmhc, hand2, has2, mef2a, mef2c, bmp2b, ephrinB2, ephB4) in zebrafish embryos; assay: qRT-PCR expression of transcription factors during development of zebrafish embryos (Example 4); type: in vivo; conditions: 8 mM FA
Procedure: In order to explore an effect of folic acid on epigenetics during development of the zebrafish embryos, the zebrafish embryos at different developmental stages were collected for testing. […] A fluorescent dye SYBR Green was used in the qRT-PCR experiment. The qRT-PCR was conducted according to the instructions of an SYBR Green qPCR Master Mix kit and a detection was conducted on an ABI (HT 7900) PCR instrument. […] An expression of β-actin was used as an internal reference and relative expression levels of other genes were calculated by a ΔΔCt method.

heart of neonatal mice = conditions: mouse, in vivo
Procedure: 75 7-week-old female C57BL/6J mice and 25 8-week-old male C57BL/6J mice were provided by Shanghai Lingchang Biotechnology Co., Ltd. with a certificate number of SCXK (Shanghai) 2018-0003. […] The female mice were randomly divided into 5 groups according to body weight: a solvent control group, a folic acid (151.66 μg/kg) group, a folic acid (303.32 μg/kg) group, a calcium 5-methyltetrahydrofolate (converted to folic acid, 151.66 μg/kg) group and a calcium 5-methyl tetrahydrofolate (converted to folic acid, 303.32 μg/kg) group. 1.1275 unit mass of the calcium 5-methyltetrahydrofolate equaled to 1 unit mass of the folic acid.
15 mice were in each group and numbered by a toe clipping method. The mice were intragastrically administrated once a day on the second day after grouping. One week after the pre-administration, male and female mice were caged at a ratio of […], a vaginal plug was observed every day from the next day, and a day when the vaginal plug was seen was recorded as day 0.5 of pregnancy. After 14 days of caging, the female mice stopped the administration, the male mice were removed, and the pregnant female mice were fed alone until litter.
In addition, 4-5 mice were randomly selected from each group and the 6-day-old small animals were subjected to cardiac echocardiography (Vevo 2100 Imaging System, VisualSonics, Toronto, ON, Canada).

fetal rat heart = assay: Effect of folic acid on fetal rat heart under pharmacological dose (Example 9); type: in vivo, rats
Procedure: In order to investigate an effect of folic acid on fetal rat heart under pharmacological dose, 6 folic acid groups and a blank control group were divided in the experiment, the folic acid groups were divided into a folic acid group 1 (4.555 mg/kg/d), a folic acid group 2 (2.2775 mg/kg/d), a folic acid group 3 (0.911 mg/kg/d), a folic acid group 4 (0.4555 mg/kg/d), a folic acid group 5 (0.22775 mg/kg/d) and a folic acid group 6 (0.113875 mg/kg/d). The folic acid groups and the blank control group consisted of 4 pregnant mice each. The pregnant mice in the folic acid group 1 (4.555 mg/kg/d), the folic acid group 2 (2.2775 mg/kg/d) and the folic acid group 3 (0.911 mg/kg/d) were intraperitoneally injected, the pregnant mice in the folic acid group 4 (0.4555 mg/kg/d), the folic acid group 5 (0.22775 mg/kg/d) and the folic acid group 6 (0.113875 mg/kg/d) were intragastrically administrated, and the pregnant mice in the blank control group were naturally fed. After the female rats were administrated for 7 days, male and female rats were mated in a cage at a ratio of 1:1 overnight, a vaginal plug was checked the next morning, a day when the vaginal plug was found was regarded as day 0 of pregnancy, the pregnant mice were separately fed and administrated for 21 consecutive days, a fetus was obtained by cesarean section, and the number of fetal rats in each group was shown in FIG. 30. Fetal rat hearts were taken for a pathological examination and the results were as follows.

[2] = Group 1: folic acid 4.555 mg/kg/d intraperitoneal
[3] = Group 2: folic acid 2.2775 mg/kg/d intraperitoneal
[4] = Group 3: folic acid 0.911 mg/kg/d intraperitoneal
[5] = Group 4: folic acid 0.4555 mg/kg/d intragastric
[6] = Group 5: folic acid 0.22775 mg/kg/d intragastric
[7] = Group 6: folic acid 0.113875 mg/kg
[8] = Group 6: folic acid 0.113875 mg/kg/d intragastric

Nc1nc2ncc(CNc3ccc(C(=O)N[C@@H](CCC(=O)O)C(=O)O)cc3)nc2c(=O)[nH]1 [FA, pteroylglutamic acid]
10 s heart rate (48 hpf) and body length (72 hpf) (zebrafish embryos): seriously led to bradycardia and a shortened body length of zebrafish
survival rate of zebrafish (zebrafish embryos; 2-72 hpf): severely led to a low survival rate of zebrafish
embryo development (zebrafish embryos; 8 hpf): delayed development of the zebrafish embryos
embryo phenotype (zebrafish embryos; 24 hpf): led to small heads and short tails of zebrafish
embryo phenotype (zebrafish embryos; 48 hpf): led to pericardium edema, dyspigmentation, and intersegmental vascular hypoplasia of zebrafish
pericardium edema (zebrafish embryos; 48 hpf): seriously led to pericardium edema of zebrafish
embryo phenotype (zebrafish embryos; 72 hpf): led to developmental disorders of lower intestinal network blood vessels of the zebrafish
expression of bmp2b gene ([1]; 24 hpf): decreased an expression of a bmp2b gene
expression of mef2c gene ([1]; 24 hpf): increased an expression of a mef2c gene
expression of ephb4 gene ([1]; 48 hpf): inhibited
expression of has2 gene ([1]; 48 hpf): inhibited
expression of mef2c gene ([1]; 48 hpf): inhibited
expression of vmhc gene ([1]; 48 hpf): increased an expression of a vmhc gene
left ventricular internal diameter end-diastole (LVID(d)) (heart of neonatal mice): significantly lower than those of other groups
left ventricular internal diameter end-systole (LVID(s)) (heart of neonatal mice): significantly lower than those of other groups
Atrioventricular defects/septal defects (fetal rat heart; [2]): 3
Development delay (fetal rat heart; [2]): 1
Malformation cases (fetal rat heart; [2]): 4
Malformation rate (fetal rat heart; [2]): 12.9%
Sparse myocardial trabeculae (fetal rat heart; [2]): 0
Atrioventricular defects/septal defects (fetal rat heart; [3]): 2
Development delay (fetal rat heart; [3]): 2
Malformation cases (fetal rat heart; [3]): 4
Malformation rate (fetal rat heart; [3]): 12.1%
Sparse myocardial trabeculae (fetal rat heart; [3]): 0
Atrioventricular defects/septal defects (fetal rat heart; [4]): 1
Development delay (fetal rat heart; [4]): 2
Malformation cases (fetal rat heart; [4]): 3
Malformation rate (fetal rat heart; [4]): 11.5%
Sparse myocardial trabeculae (fetal rat heart; [4]): 0
Atrioventricular defects/septal defects (fetal rat heart; [5]): 5
Development delay (fetal rat heart; [5]): 0
Malformation cases (fetal rat heart; [5]): 5
Malformation rate (fetal rat heart; [5]): 17.2%
Sparse myocardial trabeculae (fetal rat heart; [5]): 0
Atrioventricular defects/septal defects (fetal rat heart; [6]): 5
Development delay (fetal rat heart; [6]): 0
Malformation cases (fetal rat heart; [6]): 5
Malformation rate (fetal rat heart; [6]): 15.2%
Sparse myocardial trabeculae (fetal rat heart; [6]): 0
atrial walls defective (number of individuals) (fetal rat heart; [7]): 1
ventricular septal defects (number of individuals) (fetal rat heart; [7]): 3
Atrioventricular defects/septal defects (fetal rat heart; [8]): 4
Development delay (fetal rat heart; [8]): 1
Malformation cases (fetal rat heart; [8]): 4
Malformation rate (fetal rat heart; [8]): 9.5%
Sparse myocardial trabeculae (fetal rat heart; [8]): 0
